Reference: patent US12286435B2, “Compound having benzo seven-membered ring structure, preparation method therefor, and use thereof” (BIONNA (BEIJING) MEDICAL TECHNOLOGY CO., LTD., priority 2019, dated 2025)
Like-named read-outs stand apart in the source and are kept apart here.

Columns and labels:
BRD4 BD2 protein = BRD4 BD2 protein (Homo sapiens (Human), UniProt O60885); experiment: Fluorescence polarization binding affinity (Ki) with BRD4 BD2 protein
BRD4 BD1 protein = BRD4 BD1 protein (Homo sapiens (Human), UniProt O60885); experiment: Fluorescence polarization binding affinity (Ki) with BRD4 BD1 protein
[1] = fluorescence polarization, Ki calculated from IC50

SMILES	Ki (BRD4 BD2 protein; [1])	Ki (BRD4 BD1 protein; [1])	Ki (BRD4 BD2 protein)	Ki (BRD4 BD1 protein)
Cc1nnn2c1-c1ccc(C3=CCNCC3)cc1C(Nc1cc(Cl)ccc1F)CC2 (stereo not shown) [LD08, N-(5-chloro-2-fluorophenyl)-1-methyl-9-(1,2,3,6-tetrahydropyridin-4-yl)-6,7-dihydro-5H-benzo[c][1,2,3]triazolo[1,5-a]azepin-7-amine 2,2,2-trifluoroacetate]	0.0623 µM	1.27 µM		
CC(=O)N1CC=C(c2ccc3c(c2)C(N(C(C)=O)c2cccc(Cl)c2)CCn2nnc(C)c2-3)CC1 (stereo not shown) [LD13]			1.74 µM	0.944 µM
CCC(=O)N1CC=C(c2ccc3c(c2)C(Nc2ccc(Cl)cc2)CCn2nnc(C)c2-3)CC1 (stereo not shown) [LD14, 1-(4-(7-((4-chlorophenyl)amino)-1-methyl-6,7-dihydro-5H-benzo[c][1,2,3]triazolo[1,5-a]azepin-9-yl)-3,6-dihydropyridin-1(2H)-yl)propan-1-one]	0.00614 µM	0.0143 µM		
CCC(C)N1CC=C(c2ccc3c(c2)C(Nc2ccc(Cl)cc2)CCn2nnc(C)c2-3)CC1 (stereo not shown) [LD17, 9-(1-(sec-butyl)-1,2,3,6-tetrahydropyridin-4-yl)-N-(4-chlorophenyl)-1-methyl-6,7-dihydro-5H-benzo[c][1,2,3]triazolo[1,5-a]azepin-7-amine 2,2,2-trifluoroacetate]	0.051 µM	0.616 µM		
Cc1nnn2c1-c1ccc(C3=CCNCC3)cc1C(Nc1cccc(CC#N)c1)CC2 (stereo not shown) [RC71, 2-(3-((1-methyl-9-(1,2,3,6-tetrahydropyridin-4-yl)-6,7-dihydro-5H-benzo[c][1,2,3]triazolo[1,5-a]azepin-7-yl)amino)phenyl)acetonitrile 2,2,2-trifluoroacetate]	0.0525 µM	1.04 µM		
Cc1nnn2c1-c1ccc(C3=CCNCC3)cc1C(Nc1ccc(CC#N)cc1)CC2 (stereo not shown) [RC73, 2-(4-((1-methyl-9-(1,2,3,6-tetrahydropyridin-4-yl)-6,7-dihydro-5H-benzo[c][1,2,3]triazolo[1,5-a]azepin-7-yl)amino)phenyl)acetonitrile 2,2,2-trifluoroacetate]	0.139 µM	2.37 µM		
Cc1nnn2c1-c1ccc(C3=CCNCC3)cc1C(Nc1ccccc1CC#N)CC2 (stereo not shown) [RC82, 2-(2-((1-methyl-9-(1,2,3,6-tetrahydropyridin-4-yl)-6,7-dihydro-5H-benzo[c][1,2,3]triazolo[1,5-a]azepin-7-yl)amino)phenyl) acetonitrile 2,2,2-trifluoroacetate]	1.52 µM	2.37 µM		
Cc1nnn2c1-c1ccc(C3=CCNCC3)cc1C(Nc1ccccc1C#N)CC2 (stereo not shown) [RC116, 2-((1-methyl-9-(1,2,3,6-tetrahydropyridin-4-yl)-6,7-dihydro-5H-benzo[c][1,2,3]triazolo[1,5-a]azepin-7-yl)amino)benzonitrile 2,2,2-trifluoroacetate]	0.115 µM	1 µM		
Cc1nnn2c1-c1ccc(C3=CCN(C)CC3)cc1C(Nc1ccccc1Cl)CC2 (stereo not shown) [RD06, N-(2-chlorophenyl)-1-methyl-9-(1-methyl-1,2,3,6-tetrahydropyridin-4-yl)-6,7-dihydro-5H-benzo[c][1,2,3]triazolo[1,5-a]azepin-7-amine 2,2,2-trifluoroacetate]	0.0564 µM	1.03 µM		
Cc1nnn2c1-c1ccc(C3=CCNCC3)cc1C(Nc1cccc(CO)c1)CC2 (stereo not shown) [RD21, (3-((1-methyl-9-(1,2,3,6-tetrahydropyridin-4-yl)-6,7-dihydro-5H-benzo[c][1,2,3]triazolo[1,5-a]azepin-7-yl)amino)phenyl)methanol 2,2,2-trifluoroacetate]	0.0904 µM	1.53 µM		
Cc1nnn2c1-c1ccc(C3=CCN(C)CC3)cc1C(Nc1ccc(CO)cc1)CC2 (stereo not shown) [RD41, (4-((1-methyl-9-(1-methyl-1,2,3,6-tetrahydropyridin-4-yl)-6,7-dihydro-5H-benzo[c][1,2,3]triazolo[1,5-a]azepin-7-yl)amino)pheny 1)methanol 2,2,2-trifluoroacetate]	0.0551 µM	1.55 µM		
CCN1CC=C(c2ccc3c(c2)C(Nc2cccc(Cl)c2F)CCn2nnc(C)c2-3)CC1 (stereo not shown) [RD115, N-(3-chloro-2-fluorophenyl)-9-(1-ethyl-1,2,3,6-tetrahydropyridin-4-yl)-1-methyl-6,7-dihydro-5H-benzo[c][1,2,3]triazolo[1,5-a]azepin-7-amine 2,2,2-trifluoroacetate]	0.0591 µM	1.13 µM		
CCN1CC=C(c2ccc3c(c2)C(Nc2ccc(F)c(Cl)c2)CCn2nnc(C)c2-3)CC1 (stereo not shown) [RD121, N-(3-chloro-4-fluorophenyl)-9-(1-ethyl-1,2,3,6-tetrahydropyridin-4-yl)-1-methyl-6,7-dihydro-5H-benzo[c][1,2,3]triazolo[1,5-a]azepin-7-amine 2,2,2-trifluoroacetate]			0.0318 µM	0.788 µM
CCN1CC=C(c2ccc3c(c2)C(Nc2cc(Cl)ccc2F)CCn2nnc(C)c2-3)CC1 (stereo not shown) [RD123, N-(5-chloro-2-fluorophenyl)-9-(1-ethyl-1,2,3,6-tetrahydropyridin-4-yl)-1-methyl-6,7-dihydro-5H-benzo[c][1,2,3]triazolo[1,5-a]azepin-7-amine 2,2,2-trifluoroacetate]			0.0408 µM	1.09 µM
CCN1CCC(c2ccc3c(c2)C(Nc2cccc(Cl)c2)CCn2nnc(C)c2-3)CC1 (stereo not shown) [RD142, N-(3-chlorophenyl)-9-(1-ethylpiperidin-4-yl)-1-methyl-6,7-dihydro-5H-benzo[c][1,2,3]triazolo[1,5-a]azepin-7-amine 2,2,2-trifluoroacetate]	0.193 µM	4.41 µM		
Cc1nnn2c1-c1ccc(C3=CCN(C4CCCCC4)CC3)cc1C(Nc1cccc(Cl)c1F)CC2 (stereo not shown) [RD178, N-(3-chloro-2-fluorophenyl)-9-(1-cyclohexyl-1,2,3,6-tetrahydropyridin-4-yl)-1-methyl-6,7-dihydro-5H-benzo[c][1,2,3]triazolo[1,5-a]azepin-7-amine 2,2,2-trifluoroacetate]			0.0327 µM	1.26 µM
Cc1nnn2c1-c1ccc(C3=CCN(C4CCCC4)CC3)cc1C(Nc1cccc(Cl)c1F)CC2 (stereo not shown) [RD179, N-(3-chloro-2-fluorophenyl)-9-(1-cyclopentyl-1,2,3,6-tetrahydropyridin-4-yl)-1-methyl-6,7-dihydro-5H-benzo[c][1,2,3]triazolol[1,5-a]azepin-7-amine 2,2,2-trifluoroacetate]	0.0326 µM	2.81 µM		
CC(=O)N1CC=C(c2ccc3c(c2)C(Nc2cccc(Cl)c2F)CCn2nnc(C)c2-3)CC1 (stereo not shown) [RD180, 1-(4-(7-((3-chloro-2-fluoro-phenyl)amino)-1-methyl-6,7-dihydro-5H-benzo[c][1,2,3]triazolo[1,5-a]azepin-9-yl)-3,6-dihydropyridin-1 (2H)-yl)ethan-1-one]	0.0121 µM	0.052 µM		
Cc1nnn2c1-c1ccc(C3=CCN(C(C)C)CC3)cc1[C@@H](Nc1cccc(Cl)c1)CC2 [RE10 (S), (7S)—N-(3-chlorophenyl)-9-(1-isopropyl-1,2,3,6-tetrahydropyridin-4-yl)-1-methyl-6,7-dihydro-5H-benzo[c][1,2,3]triazolo[1,5-a]azepin-7-amine 2,2,2-trifluoroacetate]	0.177 µM	0.884 µM		
Cc1nnn2c1-c1ccc(C3=CCN(C(C)C)CC3)cc1C(Nc1cccc(Cl)c1F)CC2 (stereo not shown) [RE29, N-(3-chloro-2-fluorophenyl)-9-(1-isopropyl-1,2,3,6-tetrahydropyridin-4-yl)-1-methyl-6,7-dihydro-5H-benzo[c][1,2,3]triazolo[1,5-a]azepin-7-amine 2,2,2-trifluoroacetate]	0.0658 µM	1.55 µM		
